Experimental data published in ChEMBL document CHEMBL1132363, “Asymmetric synthesis and antiviral activities of L-carbocyclic 2', 3'-didehydro-2',3'-dideoxy and 2',3'-dideoxy nucleosides” (J Med Chem, 1999).
pEC50, pIC50: −log10 of the molar value.

How the values were obtained:
Vero = experiment: The compound was tested for the cytotoxicity against Vero cells; type: functional, cell-based; details: Chlorocebus sabaeus
[1] = The compound was tested in vitro for the anti-HIV activity against peripheral blood mononuclear (PBM)cells; type: functional; details: Homo sapiens
Homo sapiens [2] = organism: Homo sapiens; experiment: The compound was tested in vitro for the anti-HBV activity against 2.2.15 cells; type: functional, cell-based; details: HepG2 2.2.15
CCRF-CEM = experiment: The compound was tested for the cytotoxicity against CEM cells; type: functional, cell-based; details: Homo sapiens
[3] = The compound was tested for the cytotoxicity against peripheral blood mononuclear (PBM)cells; type: functional, cell-based; details: Homo sapiens
[4] = The compound was tested in vitro for the anti-HIV activity in peripheral blood mononuclear (PBM) cells; type: functional; details: Homo sapiens
Homo sapiens [5] = organism: Homo sapiens; experiment: The compound was tested in vitro for the anti-HBV activity in 2.2.15 cells; type: functional, cell-based; details: HepG2 2.2.15
[6] = The compound was tested for the cytotoxicity against peripheral blood mononuclear (PBM) cells; type: functional, cell-based; details: Homo sapiens

Row | SMILES | pIC50 (Vero) | pEC50 [1] | pEC50 (Homo sapiens [2]) | pIC50 (CCRF-CEM) | pIC50 [3] | pEC50 [4] | pEC50 (Homo sapiens [5]) | EC90 [1] | pIC50 [6]
1 | O=c1ccn([C@@H]2C=C[C@H](CO)C2)c(=O)[nH]1 | < 4.00 | < 4.00 | < 5.00 | < 4.00 | < 4.00 | – | – | – | –
2 | Cc1cn(C2CCC(CO)C2)c(=O)[nH]c1=O (stereo not drawn) | 3.77 | < 4.00 | < 5.00 | < 4.00 | < 4.00 | – | – | – | –
3 | Nc1nc(O)c2ncn([C@@H]3C=C[C@H](CO)C3)c2n1 | – | < 3.70 | < 3.70 | – | – | – | – | – | –
4 | Nc1ncnc2c1ncn2[C@@H]1C=C[C@H](CO)C1 | < 4.00 | 5.62 | 6.05 | < 4.00 | < 4.00 | – | – | – | –
5 | O=c1ccn(C2CCC(CO)C2)c(=O)[nH]1 (stereo not drawn) | < 4.00 | < 4.00 | < 5.00 | < 4.00 | < 4.00 | – | – | – | –
6 | COC1O[C@H]2[C@H](COC(C)(C)C)C[C@H](n3cnc4c(Cl)ncnc43)[C@H]2O1 (stereo partly drawn) | < 4.00 | < 4.00 | < 5.00 | < 4.00 | < 4.00 | – | – | – | –
7 | OC[C@H]1CC[C@@H](n2cnc3c(O)ncnc32)C1 | < 4.00 | – | – | < 4.00 | < 4.00 | < 4.00 | < 5.00 | – | –
8 | OC[C@H]1C=C[C@@H](n2cnc3c(O)ncnc32)C1 | < 4.00 | < 4.00 | < 5.00 | < 4.00 | < 4.00 | – | – | – | –
9 | Nc1ccn([C@@H]2C=C[C@H](CO)C2)c(=O)n1 | < 4.00 | 4.41 | < 5.00 | < 4.00 | < 4.00 | – | – | 65.9 µM | –
10 | Cc1cn([C@@H]2C=C[C@H](CO)C2)c(=O)[nH]c1=O | 4.31 | < 4.00 | < 5.00 | < 4.00 | 4.18 | – | – | – | –
11 | Nc1ncnc2c1ncn2C1CCC(CO)C1 (stereo not drawn) | < 4.00 | 4.57 | < 4.30 | < 4.00 | < 4.00 | – | – | – | –
12 | OC[C@H]1C=C[C@@H](n2cnc3c(S)ncnc32)C1 | < 4.00 | – | – | < 4.00 | – | < 4.00 | < 5.00 | – | < 4.00
